Experimental data from US9901637B2, “Vitamin D3 and analogs thereof for treating alopecia” (priority 2009, dated 2018).

Columns and labels:
[1] = test system: HEKa cells; assay: Pretreatment of cells with calcitriol, cell viability assay with chemotherapy drugs; type: cell-based, human
Excerpt: Then these pretreated cells were utilized to set up the cell-based assay. […] The four cancer cell lines continued to grow and were not altered in their general morphological appearances. […] For this cell line, a new batch of cells were started and were exposed to only a single passage in the presence of calcitriol, prior to testing in the presence of the chemotherapy drugs. Three commonly used chemotherapy drugs (doxorubicin, cisplatin and erlotinib) were selected to evaluate calcitriol treated cells. […] In these experiments, the commercial drugs were serially diluted, starting at a concentration 4-times higher than the final desired concentration for cell incubation. […] The assay was carried out according to the previously described method in order to provide consistency and allow direct comparison. The result was based upon measurement of the total number of viable cells. […] Thus, a topical application of calcitriol could be applied at the same time as the systemic delivery of the chemotherapy. A staged application is not required.

[2] = test system: SkBr-3 (breast adenocarcinoma cancer, Her2 overexpressed); assay: Cell growth/viability assay, calcitriol with or without chemotherapy drug; type: cell-based
[3] = test system: PaCa2 (pancreatic carcinoma); assay: as above; type: cell-based
[4] = test system: MIAC51 (chloroleukemia cells); assay: Rats transplanted with chloroleukemia: protection of cancer cells from chemotherapy; type: in vivo; details: Long Evans rats injected with MIAC51, cyclophosphamide; preliminary results
Protocol: For experiments in which rats were transplanted with chloroleukemia, on Day 5 after birth, rats were randomly divided into three groups of 45 each. All rats received 1×10^5 chloroleukemic cell line MIAC51 (i.p.) in 0.1 mL of serum free (SF) RPMI. MIAC51 were cultured in RPMI 1640 supplemented with L-glutamine and 10% fetal bovine serum at 37° C. in a 5% CO2, 100% humidity incubator. Cells were grown to 50% confluency (1.5×106 mL) collected in 50 mL conical tubes, centrifuged at 600 g×10 min. at room temperature and resuspended in SF-RPMI at a concentration of 1×10^6/mL. Group 1 rats received no further treatment. Group 2 rats received topical vehicle and CTX on day 13. […] Topical applications were performed as described above.
On day 23 after birth, a sample of blood was taken from all rats and differentials performed. Rats with leukemia were sacrificed, rats without leukemia were kept and a second differential performed on day 31, at any point if leukemia was detected, animals were sacrificed by CO2 asphyxiation.

[5] = test system: HepG2 (liver cancer); assay: Cell growth/viability assay, calcitriol with or without chemotherapy drug; type: cell-based
[6] = Preliminary animal toxicology study; type: in vivo; details: dose of about 100 μg
[7] = test system: HEKa cells; assay: Proteomic analysis (2-D gel electrophoresis) of calcitriol-treated HEKa; type: cell-based, human; details: 0.1 μg/mL calcitriol
Protocol: The cell pellets were then analyzed using proteomic methods, such as 2-D gel and Western blot analysis. […] In all, analysis of about 458 protein spots in the comparative study was performed, comparing the control sample against the 3-, 6-, and 24-hour treatment samples. Six spots showing statistically significant differential changes were identified. These spots were excised, and their protein contents subjected to sequence identification by trypsin digestion and mass spectrometry characterization.

[8] = test system: NIH-3T3 (immortalized fibroblast); assay: Cell growth/viability assay, calcitriol with or without chemotherapy drug; type: cell-based
[9] = test system: HEKa cells; assay: Protective effect of calcitriol on HEKa cells against chemotherapeutic drugs; type: cell-based, human; details: 0.1 μg/mL calcitriol
Protocol: These include: erlotinib (Tarceva), an EGFR Tyr kinase inhibitor; gefutubib (Iressa), an EGFR Tyr kinase inhibitor; sorafenib, inhibitor of several Tyr kinases (Raf, VEGF-R2, c-kit, PDGR-R); Dasatinib, a BCR/ABL Tyr kinase inhibitor; and staurosporin, a relatively nonspecific kinase inhibitor.
The drug treatment period was usually three days. At the end of the three days, the background OD of the 96-well plate was read at 280 nm, before 20 μL of the “Substrate Cell Titer 96 Aqueous One Solution Reagent” (Promega) was added to each well. The plate was returned to the 37° C. incubator, and its OD at 490 nm was read each hour until an OD of approximately 1.5 was reached. The net OD increase was calculated by subtracting the pre-substrate OD reading.
The impact of the drug on the cells was calculated by comparing the OD at different concentrations in relation to the OD of the control wells (without the drug).

[10] = test system: SKMEL-28 (melanoma); assay: Cell growth/viability assay, calcitriol with or without chemotherapy drug; type: cell-based
[11] = test system: Primary human epidermal keratinocytes (HEKa); assay: Real-time PCR array, Heat Shock Protein Array, calcitriol-treated HEKa; type: cell-based; details: HEKa cells, 0.1 μg/mL calcitriol
Protocol: Changes in mRNA levels were evaluated using real-time PCR quantification to assess mRNA levels in preselected subsets containing 80 pathway specific targets (see Appendix). The PCR array analysis utilized two groups of genes—those related to Heat Shock Proteins (SABiosciences), and those related to Neuroscience Ion Channels and Transporters (SABioscience). Primary human epidermal keratinocytes (HEKa) were maintained in Epilife Medium (Cascade Biologics, Inc., Portland Oreg.) along with Human Keratinocyte Growth Supplement (Cascade Biologics, Inc., Portland Oreg.). […] Vehicle control group of cells were treated with 5 mL media containing 1 μL of ethanol. Cells were harvested 3, 6, 16, 24, 48, or 72 hours after the start of the treatment. Cells were lysed for RNA isolation at different treatment times using the RNeasy Mini kit (Qiagen, Inc., Valencia Calif.) following the manufacturer's instructions. RNA was quantified by measuring optical density at 260 nm. First Strand Synthesis: […] Products from the first strand synthesis were diluted with water, mixed with the SYBR green master mix (SABiosciences, Frederick Md.) and loaded onto PCR arrays. Real time PCR was run on the PCR Arrays (Heat Shock Protein Arrays, and Neuroscience and Ion Channel Arrays) (SABiosciences, Frederick Md.) on a Biorad CFX96. Data analyses were performed using the PCR array data analysis software available on the SABiosciences website.

Question: For C=C1/C(=C\C=C2/CCC[C@]3(C)[C@@H]([C@H](C)CCCC(C)(C)O)CC[C@@H]23)C[C@@H](O)C[C@@H]1O [Calcitriol, 1,25-dihydroxyvitamin D3], which “growth of HEKa cells after prolonged calcitriol exposure” value ([1]; 0.1 μg/mL calcitriol for two cell passages) is on record?
Answer: stopped growing

Question: And the “chemoprotective effect, pre-treatment group versus simultaneous treatment group” value ([1]; 0.1 μg/mL calcitriol, doxorubicin, cisplatin, erlotinib)?
Answer: nearly identical

Question: And the “effect of calcitriol on cell growth” value [2]?
Answer: no significant growth promoting or growth inhibiting effects

Question: What about the “effect on the cytotoxic effect of Doxorubicin” value (“effect on the cytotoxic effect” for short) [2] of the same molecule?
Answer: did not appear to appreciably alter

Question: And the “effect of calcitriol on cell growth” value ([3]; PaCa2)?
Answer: no significant growth promoting or growth inhibiting effects

Question: And the “effect on the cytotoxic effect” value ([3]; PaCa-2)?
Answer: did not appear to appreciably alter

Question: What about the “5-FU ED50 curve with versus without calcitriol” value ([3]; PaCa-2, 0.1 μg/mL calcitriol) of the same molecule?
Answer: not significantly different

Question: What about the “response to other drugs (doxorubucin, cisplatin, erlotinib) after calcitriol exposure” value ([3]; PaCa-2, 0.1 μg/mL calcitriol for two passages) of the same molecule?
Answer: did not alter

Question: What about the “protection of the cancer cells from chemotherapy by topical calcitriol” value [4] of the same molecule?
Answer: have not shown protection of the cancer cells

Question: What about the “effect on the cytotoxic effect” value ([5]; Hep-G2) of the same molecule?
Answer: did not appear to appreciably alter

Question: What about the “5-FU ED50 curve with versus without calcitriol” value ([5]; Hep-G2, 0.1 μg/mL calcitriol) of the same molecule?
Answer: not significantly different

Question: What about the “response to other drugs (doxorubucin, cisplatin, erlotinib) after calcitriol exposure” value ([5]; Hep-G2, 0.1 μg/mL calcitriol for two passages) of the same molecule?
Answer: did not alter

Question: And the “concentrations giving calcitriol growth inhibition” value ([5]; HepG2)?
Answer: > 0.5 µg/mL

Question: What about the “concentrations giving calcitriol growth stimulation” value ([5]; HepG2) of the same molecule?
Answer: 0.05 to 0.25 µg/mL

Question: And the dermal irritation [6]?
Answer: no dermal irritation

Question: What about the skin penetration [6] of the same molecule?
Answer: excellent epidermal penetration without substantial dermal penetration

Question: And the “Glutathione S-transferase (GST) Response” value ([7]; at 3, 6, and 24 hours, 2-D gel spot 4)?
Answer: up at 3,

Question: What about the “S100 A13 Response” value ([7]; at 6 and 24 hours, spot 14) of the same molecule?
Answer: up at

Question: What about the “Galectin 1 (LGALS1) Response” value ([7]; at 6 and 24 hours, spot 27) of the same molecule?
Answer: up at

Question: And the “Keratin 1 (KRT1) Response” value ([7]; at 6 hours, spot 2)?
Answer: up at

Question: And the “effect of calcitriol on cell growth” value [8]?
Answer: no significant growth promoting or growth inhibiting effects

Question: And the “effect on the cytotoxic effect” value [8]?
Answer: did not appear to appreciably alter

Question: And the “protective effect against 5-FU” value [9]?
Answer: mild protective effect

Question: And the “protective effect against Paxlitaxol (paclitaxel)” value [9]?
Answer: some protective effects

Question: What about the “protective effect against gemcitabine” value [9] of the same molecule?
Answer: mild protective effect

Question: What about the “protective effect against irinotecan” value [9] of the same molecule?
Answer: positive protective effect

Question: And the “protective effect against tamoxifen” value [9]?
Answer: weak

Question: And the “protective effect against the cytotoxic effect of doxorubicin” value [9]?
Answer: did not appear to provide a significant protective effect

Question: What about the “protection against alkylating agents cisplatin and carboplatin” value ([9]; low dosage levels) of the same molecule?
Answer: moderate level of protection

Question: What about the “protective effect against kinase inhibitor drugs (erlotinib, gefitinib, sorafenib, dasatinib, staurosporin)” value ([9]; low drug dosage levels) of the same molecule?
Answer: protected the HEKa cells

Question: And the “effect of calcitriol on cell growth” value ([10]; SKMEL-28)?
Answer: no significant growth promoting or growth inhibiting effects

Question: What about the “effect on the cytotoxic effect” value ([10]; SKMEL-28) of the same molecule?
Answer: did not appear to appreciably alter

Question: And the “5-FU ED50 curve with versus without calcitriol” value ([10]; SKMEL-28, 0.1 μg/mL calcitriol)?
Answer: not significantly different

Question: What about the “HSPB1 (Heat shock 27 kDa protein 1) mRNA Regulation Pattern” value ([11]; regulated in two independent experiments) of the same molecule?
Answer: Down regulated at 48 hours

Question: And the “DNAJC6 (DnaJ (Hsp40) homolog, subfamily C, member 6) mRNA Regulation Pattern” value ([11]; two independent experiments)?
Answer: Downregulated

Question: And the “HSF4 (Heat shock transcription factor 4) mRNA Regulation Pattern” value ([11]; two independent experiments)?
Answer: Upregulated at 48 hours

Question: What about the “HSPA2 (Heat shock 70 kDa protein 2) mRNA Regulation Pattern” value ([11]; two independent experiments) of the same molecule?
Answer: Upregulated at 48 hours
